Tests used:
[1] = target: T1, glycine transporter encoded by rB20a (Rattus norvegicus, UniProt P28572); assay: Competition for [3H]glycine uptake by COS-7 cells transfected with rB20a; assay type: cell-based; conditions: for inhibition at 1000 µM / inhibition at 10 µM / inhibition at 100 µM: COS-7, 10 min, read-out: % displacement of specific [3H]glycine uptake; for % displacement of specific [3H]glycine uptake: 50 nM [3H]glycine, 10 minutes, 37° C.
T1 construct: expressed in transfected cells
T1 sequence (P28572 1-638): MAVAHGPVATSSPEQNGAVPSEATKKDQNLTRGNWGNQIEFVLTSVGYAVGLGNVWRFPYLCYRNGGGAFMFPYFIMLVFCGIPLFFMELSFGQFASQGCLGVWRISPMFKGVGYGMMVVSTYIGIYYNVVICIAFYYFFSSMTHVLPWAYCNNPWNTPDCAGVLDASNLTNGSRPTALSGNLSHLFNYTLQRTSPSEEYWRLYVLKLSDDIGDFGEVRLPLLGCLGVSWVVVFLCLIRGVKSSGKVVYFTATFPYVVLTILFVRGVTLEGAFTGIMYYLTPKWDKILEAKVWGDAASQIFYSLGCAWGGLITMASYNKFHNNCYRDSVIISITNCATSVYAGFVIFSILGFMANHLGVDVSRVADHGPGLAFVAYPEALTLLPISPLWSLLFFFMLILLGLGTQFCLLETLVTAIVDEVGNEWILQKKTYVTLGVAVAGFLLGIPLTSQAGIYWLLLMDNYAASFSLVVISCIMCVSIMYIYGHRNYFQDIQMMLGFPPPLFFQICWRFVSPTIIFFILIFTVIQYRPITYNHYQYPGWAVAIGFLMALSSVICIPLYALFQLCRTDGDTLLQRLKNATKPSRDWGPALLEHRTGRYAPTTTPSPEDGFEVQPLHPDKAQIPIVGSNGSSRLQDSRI
Description: (§1) These two clones were constructed into a full-length clone (designated rB20a) by ligation at their internal Nco I sites and then cloned into the eukaryotic expression vector pSVL (Pharmacia LXB Biotechnology, Piscataway, N.J.). Transient transfection of COS cells was carried out using DEAE-dextran with DMSO according to the method of Lopata et al. (1984) with minor modifications. COS cells were grown in six-well plates (37° C.,5%CO2) in high glucose Dulbecco's modified Eagle medium supplemented with 10% bovine calf serum, 100 U/ml penicillin G, and 100 μg/ml streptomycin sulfate. Cells were routinely used two days after transfection for transport studies.
(§2) Plates were incubated at 37° C. for 10 or 20 minutes, then washed rapidly 3× with HBS. Cells were solubilized with 0.05% sodium deoxycholate/0.1N NaOH (1 ml/well), 0.5 ml aliquots were removed, neutralized with 1N HCl, and radioactivity was determined by scintillation counting. Protein was quantified in an aliquot of the solubilized cells with the Bradford Reagent (Biorad, Richmond, Calif.), according to the manufacturer's directions.
Nonspecific uptake was determined with 1 mM

[2] = target: T1, glycine transporter encoded by rB20a; assay: Transport of radiolabeled substrates by COS cells transiently transfected with rB20a; assay type: cell-based; conditions: data not shown
Description: as §1, §2

[3] = system: high-affinity transporter in rat brain synaptosomes; conditions: read-out: Km for glycine; cited from earlier work
[4] = system: high-affinity transporter present in glial cell cultures; conditions: read-out: Km for glycine; cited from earlier work

| Molecule | inhibition at 1000 µM [1] [%] | effect of rB20a expression on uptake of the radiolabeled substrate [2] | further results |
| --- | --- | --- | --- |
| NC[C@H](O)c1ccc(O)c(O)c1 [(-)-norepinephrine] | 0 |  |  |
| NCCCC(=O)O [GABA, gamma-aminobutyric acid] | 0 |  |  |
| C[C@H](N)C(=O)O [L-alanine] | 2 |  |  |
| N[C@@H](CCC(=O)O)C(=O)O [L-glutamate] | 0 |  |  |
| N[C@@H](CO)C(=O)O [L-serine] | 4 |  | % displacement of specific [3H]glycine uptake ([1]; inhibitor 1 mM): Neither α-(methylamino) isobutyric acid (1 mM), a substrate for system A, nor L-serine (1 mM), a substrate for system ASC, significantly competed |
| NCCc1c[nH]c2ccc(O)cc12 [[^3 H]5-HT] |  | did not significantly alter |  |
| NCCCC(=O)O [[^3 H]GABA] |  | did not significantly alter |  |
| NCCc1ccc(O)c(O)c1 [[^3 H]dopamine] |  | did not significantly alter |  |
| NCCc1cnc[nH]1 [[^3 H]histamine] |  | did not significantly alter |  |
| [3H][C@](O)(CN)c1ccc(O)c(O)c1 [[^3 H]norepinephrine] |  | did not significantly alter |  |
| N[C@@H](Cc1ccc(O)cc1)C(=O)O [[^3 H]tyrosine] |  | did not significantly alter |  |
| NCCc1ccc(O)c(O)c1 [dopamine] | 0 |  |  |
| CCOC(=O)CN [glycine ethyl ester] | 32 |  | inhibition at 10 µM [1]: 0%; inhibition at 100 µM [1]: 0%; % displacement of specific [3H]glycine uptake ([1]; inhibitor 10 μM): no inhibition; % displacement of specific [3H]glycine uptake ([1]; inhibitor 100 μM): no inhibition |
| COC(=O)CN [glycine methyl ester] | 42 |  | inhibition at 10 µM [1]: 0%; inhibition at 100 µM [1]: 0%; % displacement of specific [3H]glycine uptake ([1]; inhibitor 10 μM): no inhibition; % displacement of specific [3H]glycine uptake ([1]; inhibitor 100 μM): no inhibition |
| NCC(=O)O [glycine] | 100 |  | Km [3]: 50 µM; Km [4]: 95 µM |
| NCCc1c[nH]cn1 [histamine] | 0 |  |  |
| CNCC(=O)O [sarcosine, N-methylglycine] | 100 |  | inhibition at 10 µM [1]: 23%; inhibition at 100 µM [1]: 64%; IC50 ([1]; estimated from inhibition at three concentrations): ~50 µM |
| CNC(C)(C)C(=O)O [α-(methylamino)isobutyric acid] | 3 |  | % displacement of specific [3H]glycine uptake ([1]; inhibitor 1 mM): Neither α-(methylamino) isobutyric acid (1 mM), a substrate for system A, nor L-serine (1 mM), a substrate for system ASC, significantly competed |
| ^3 H]glutamate |  | did not significantly alter |  |

— patent US5756348A (Synaptic Pharmaceutical Corporation, priority 1994, dated 1998)
